Data as given in the supplement of paper PMC11208160.
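Also: IS621 bridge recombinase in Escherichia coli cells against a fixed T5 target plasmid.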

Experiment: recombinant UMI read abundance after kanamycin selection (control-corrected) (log10(CPM+1)); higher = more efficient recombination; extreme values may be limits of the assay; sequences stand for … in AGTGCAGAGAAAATCGGCCAGTTTTCTCTGCCTGCAGTCCGCATGCCGTGGGACCCCTTGGGTTCTAACCTGTTGCCTAGATTTATGCAGCGGACTGCCTTTCTCCCAAAGTGATAAACCGG…AGGTTGGTTTCACT; site = the 11-nt donor
Procedure, shortened: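 Under IPTG (0.07 mM) plus kanamycin, or without selection, Escherichia coli carrying a UMI-tagged donor and donor-binding-loop pair library and a target plasmid for the IS621 bridge recombinase were plated in two replicates. Recombinant UMIs were PCR-amplified across the donor–target junction and sequenced. Counts were converted to CPM, averaged over replicates, scaled by control-derived factors and reported as log10(CPM+1).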
For “ACTGTATCATGGACCGGTTTTCCCGGTAATCCGTATTTGCC (site ACTGTATCTGG)”, the “recombinant UMI read abundance (log10)” value was 2.92. With “ACTTACTCATGGACCGGTTTTCCCGGTAATCCGTATTTGAC (site ACTTACTCTGT)” the “recombinant UMI read abundance (log10)” value was 2.81. With “ACTTCGACATGGACCGGTTTTCCCGGTAATCCGTATTTGCA (site ACTTCGACTTG)” the “recombinant UMI read abundance (log10)” value was 1.84. For “ACTTCTGCATGGACCGGTTTTCCCGGTAATCCGTATTTGCC (site ACTTCTGCTGG)”, the “recombinant UMI read abundance (log10)” value was 1.76. For “ACTTCTTCATGGACCGGTTTTCCCGGTAATCCGTATTTGTC (site ACTTCTTCTGA)”, the “recombinant UMI read abundance (log10)” value was 0. For “ACTTGCTCATGGACCGGTTTTCCCGGTAATCCGTATTTGTT (site ACTTGCTCTAA)”, the “recombinant UMI read abundance (log10)” value was 0.824. With “AGAAAAGCATGGACCGGTTTTCCCGGTAATCCGTATTTGCT (site AGAAAAGCTAG)” the “recombinant UMI read abundance (log10)” value was 2.12. With “AGAAAAGCATGGACCGGTTTTCCCGGTAATCCGTATTTGCT (site AGAAACGCTAG)” the “recombinant UMI read abundance (log10)” value was 0.464. In the case of “AGAAAAGCATGGACCGGTTTTCCCGGTAATCCGTATTTGCT (site AGAAAGGCTAG)”, the “recombinant UMI read abundance (log10)” value is reported as 1.38. In the case of “AGAAAAGCATGGACCGGTTTTCCCGGTAATCCGTATTTGCT (site AGAAATGCTAG)”, the “recombinant UMI read abundance (log10)” value is reported as 0. In the case of “AGAAAGACATGGACCGGTTTTCCCGGTAATCCGTATTTGTA (site AGAAAGACTTA)”, the “recombinant UMI read abundance (log10)” value is reported as 2.51. For “AGAAAGACATGGACCGGTTTTCCCGGTAATCCGTATTTGTA (site AGGAAGACTTG)”, the “recombinant UMI read abundance (log10)” value was 0. In the case of “AGAAAGCCATGGACCGGTTTTCCCGGTAATCCGTATTTGCT (site AGAAAGACTAG)”, the “recombinant UMI read abundance (log10)” value is reported as 0. For “AGAAAGCCATGGACCGGTTTTCCCGGTAATCCGTATTTGCT (site AGAAAGCCTAG)”, the “recombinant UMI read abundance (log10)” value was 0. For “AGAAAGCCATGGACCGGTTTTCCCGGTAATCCGTATTTGCT (site AGAAAGGCTAG)”, the “recombinant UMI read abundance (log10)” value was 0. For “AGAAAGCCATGGACCGGTTTTCCCGGTAATCCGTATTTGCT (site AGAAAGTCTAG)”, the “recombinant UMI read abundance (log10)” value was 2.3. With “AGAACAACATGGACCGGTTTTCCCGGTAATCCGTATTTGAT (site AGAACAACTAT)” the “recombinant UMI read abundance (log10)” value was 1.63. For “AGAACAACATGGACCGGTTTTCCCGGTAATCCGTATTTGCT (site TTTGTCCCTCC)”, the “recombinant UMI read abundance (log10)” value was 0.00956. In the case of “AGAACATCATGGACCGGTTTTCCCGGTAATCCGTATTTGCG (site AGAACATCTCG)”, the “recombinant UMI read abundance (log10)” value is reported as 2.3. With “AGAACCCCATGGACCGGTTTTCCCGGTAATCCGTATTTGGT (site AGAACCCCTAC)” the “recombinant UMI read abundance (log10)” value was 0.545. In the case of “AGAACGGCATGGACCGGTTTTCCCGGTAATCCGTATTTGCT (site AGAAAGGCTAG)”, the “recombinant UMI read abundance (log10)” value is reported as 1.08. In the case of “AGAACGGCATGGACCGGTTTTCCCGGTAATCCGTATTTGCT (site AGAACGGCTAG)”, the “recombinant UMI read abundance (log10)” value is reported as 2.35. With “AGAACGGCATGGACCGGTTTTCCCGGTAATCCGTATTTGCT (site AGAAGGGCTAG)” the “recombinant UMI read abundance (log10)” value was 0. For “AGAACGGCATGGACCGGTTTTCCCGGTAATCCGTATTTGCT (site AGAATGGCTAG)”, the “recombinant UMI read abundance (log10)” value was 0. In the case of “AGAACTACATGGACCGGTTTTCCCGGTAATCCGTATTTGAC (site AGAACTACTGT)”, the “recombinant UMI read abundance (log10)” value is reported as 2.15. With “AGAACTACATGGACCGGTTTTCCCGGTAATCCGTATTTGAC (site AGCACTACTGT)” the “recombinant UMI read abundance (log10)” value was 0. With “AGAACTACATGGACCGGTTTTCCCGGTAATCCGTATTTGAC (site AGGACTACTGT)” the “recombinant UMI read abundance (log10)” value was 0.849. With “AGAACTACATGGACCGGTTTTCCCGGTAATCCGTATTTGAC (site AGTACTACTGT)” the “recombinant UMI read abundance (log10)” value was 1.37. For “AGAAGAGCATGGACCGGTTTTCCCGGTAATCCGTATTTGGA (site AGAAGAGCTTC)”, the “recombinant UMI read abundance (log10)” value was 1.81. For “AGAAGGGCATGGACCGGTTTTCCCGGTAATCCGTATTTGAG (site AGAAGGGCTCT)”, the “recombinant UMI read abundance (log10)” value was 1.64. For “AGAAGGGCATGGACCGGTTTTCCCGGTAATCCGTATTTGCT (site AGAAAGGCTAG)”, the “recombinant UMI read abundance (log10)” value was 1.73. With “AGAAGGGCATGGACCGGTTTTCCCGGTAATCCGTATTTGCT (site AGAACGGCTAG)” the “recombinant UMI read abundance (log10)” value was 0.0144. With “AGAAGGGCATGGACCGGTTTTCCCGGTAATCCGTATTTGCT (site AGAAGGGCTAG)” the “recombinant UMI read abundance (log10)” value was 2.64. For “AGAAGGGCATGGACCGGTTTTCCCGGTAATCCGTATTTGCT (site AGAATGGCTAG)”, the “recombinant UMI read abundance (log10)” value was 0.25. With “AGAAGTCCATGGACCGGTTTTCCCGGTAATCCGTATTTGAA (site AGAAGTCCTTT)” the “recombinant UMI read abundance (log10)” value was 1.33. In the case of “AGACAATCATGGACCGGTTTTCCCGGTAATCCGTATTTGAG (site AGACAATCTCT)”, the “recombinant UMI read abundance (log10)” value is reported as 2.98. In the case of “AGACAATCATGGACCGGTTTTCCCGGTAATCCGTATTTGTA (site AGACAATCTTA)”, the “recombinant UMI read abundance (log10)” value is reported as 2.63. With “AGACACTCATGGACCGGTTTTCCCGGTAATCCGTATTTGGT (site AGACACTCTAC)” the “recombinant UMI read abundance (log10)” value was 2.78. For “AGACAGTCATGGACCGGTTTTCCCGGTAATCCGTATTTGAT (site AGACAGTCTAT)”, the “recombinant UMI read abundance (log10)” value was 2.94. For “AGACATCCATGGACCGGTTTTCCCGGTAATCCGTATTTGAC (site AAACATCCTGT)”, the “recombinant UMI read abundance (log10)” value was 0. In the case of “AGACATCCATGGACCGGTTTTCCCGGTAATCCGTATTTGAC (site ACACATCCTGT)”, the “recombinant UMI read abundance (log10)” value is reported as 0.237. In the case of “AGACATCCATGGACCGGTTTTCCCGGTAATCCGTATTTGAC (site AGACATCCTGT)”, the “recombinant UMI read abundance (log10)” value is reported as 0. For “AGACATCCATGGACCGGTTTTCCCGGTAATCCGTATTTGAC (site ATACATCCTGT)”, the “recombinant UMI read abundance (log10)” value was 0. With “AGACATGCATGGACCGGTTTTCCCGGTAATCCGTATTTGCC (site AGACATGCTGG)” the “recombinant UMI read abundance (log10)” value was 3.01. In the case of “AGACGAACATGGACCGGTTTTCCCGGTAATCCGTATTTGTC (site AAACGAACTGA)”, the “recombinant UMI read abundance (log10)” value is reported as 0. With “AGACGAACATGGACCGGTTTTCCCGGTAATCCGTATTTGTC (site ACACGAACTGA)” the “recombinant UMI read abundance (log10)” value was 0. In the case of “AGACGAACATGGACCGGTTTTCCCGGTAATCCGTATTTGTC (site AGACGAACTGA)”, the “recombinant UMI read abundance (log10)” value is reported as 1.35. For “AGACGAACATGGACCGGTTTTCCCGGTAATCCGTATTTGTC (site ATACGAACTGA)”, the “recombinant UMI read abundance (log10)” value was 0.731. In the case of “AGACGGGCATGGACCGGTTTTCCCGGTAATCCGTATTTGTC (site AGACGGGCTGA)”, the “recombinant UMI read abundance (log10)” value is reported as 2.3. For “AGAGCATCATGGACCGGTTTTCCCGGTAATCCGTATTTGGT (site AGAGCATCTAC)”, the “recombinant UMI read abundance (log10)” value was 2.89. For “AGAGTAACATGGACCGGTTTTCCCGGTAATCCGTATTTGCA (site AGAGTAACTTG)”, the “recombinant UMI read abundance (log10)” value was 2.71. In the case of “AGAGTATCATGGACCGGTTTTCCCGGTAATCCGTATTTGCA (site AAAGTATCTTG)”, the “recombinant UMI read abundance (log10)” value is reported as 2.57. In the case of “AGAGTATCATGGACCGGTTTTCCCGGTAATCCGTATTTGCA (site ACAGTATCTTG)”, the “recombinant UMI read abundance (log10)” value is reported as 2.7. In the case of “AGAGTATCATGGACCGGTTTTCCCGGTAATCCGTATTTGCA (site AGAGTATCTTG)”, the “recombinant UMI read abundance (log10)” value is reported as 3.29. With “AGAGTATCATGGACCGGTTTTCCCGGTAATCCGTATTTGCA (site ATAGTATCTTG)” the “recombinant UMI read abundance (log10)” value was 1.83. For “AGAGTATCATGGACCGGTTTTCCCGGTAATCCGTATTTGCC (site ACAGTATCTTG)”, the “recombinant UMI read abundance (log10)” value was 0. In the case of “AGAGTATCATGGACCGGTTTTCCCGGTAATCCGTATTTGCC (site AGAGTATCTGG)”, the “recombinant UMI read abundance (log10)” value is reported as 2.98. In the case of “AGAGTCACATGGACCGGTTTTCCCGGTAATCCGTATTTGAG (site AGAGTCACTCT)”, the “recombinant UMI read abundance (log10)” value is reported as 2.34. With “AGAGTGCCATGGACCGGTTTTCCCGGTAATCCGTATTTGGG (site AGAGTGCCTCC)” the “recombinant UMI read abundance (log10)” value was 0.0257. For “AGATAATCATGGACCGGTTTTCCCGGTAATCCGTATTTGCG (site AGATAATCTCG)”, the “recombinant UMI read abundance (log10)” value was 2.61. With “AGATAGACATGGACCGGTTTTCCCGGTAATCCGTATTTGCC (site AGATAGACTGG)” the “recombinant UMI read abundance (log10)” value was 3.03. With “AGATAGACATGGACCGGTTTTCCCGGTAATCCGTATTTGCC (site CGATAGACTGG)” the “recombinant UMI read abundance (log10)” value was 1.36. For “AGATAGACATGGACCGGTTTTCCCGGTAATCCGTATTTGCC (site GGATAGACTGG)”, the “recombinant UMI read abundance (log10)” value was 1.35. In the case of “AGATAGACATGGACCGGTTTTCCCGGTAATCCGTATTTGCC (site TGATAGACTGG)”, the “recombinant UMI read abundance (log10)” value is reported as 2.34. In the case of “AGATAGGCATGGACCGGTTTTCCCGGTAATCCGTATTTGCT (site AGAAAGGCTAG)”, the “recombinant UMI read abundance (log10)” value is reported as 0.622. With “AGATAGGCATGGACCGGTTTTCCCGGTAATCCGTATTTGCT (site AGACAGGCTAG)” the “recombinant UMI read abundance (log10)” value was 2.12. For “AGATAGGCATGGACCGGTTTTCCCGGTAATCCGTATTTGCT (site AGAGAGGCTAG)”, the “recombinant UMI read abundance (log10)” value was 0.862. In the case of “AGATAGGCATGGACCGGTTTTCCCGGTAATCCGTATTTGCT (site AGATAGGCTAG)”, the “recombinant UMI read abundance (log10)” value is reported as 2.66. In the case of “AGATAGGCATGGACCGGTTTTCCCGGTAATCCGTATTTGTA (site AGATAGGCTTA)”, the “recombinant UMI read abundance (log10)” value is reported as 2.52. With “AGATCCCCATGGACCGGTTTTCCCGGTAATCCGTATTTGTA (site AGATCCCCTTA)” the “recombinant UMI read abundance (log10)” value was 0.595. In the case of “AGATGAGCATGGACCGGTTTTCCCGGTAATCCGTATTTGCA (site AGATGAGCTTG)”, the “recombinant UMI read abundance (log10)” value is reported as 2.71. In the case of “AGATGTTCATGGACCGGTTTTCCCGGTAATCCGTATTTGTT (site AGATGTTCTAA)”, the “recombinant UMI read abundance (log10)” value is reported as 1.45. For “AGATTAGCATGGACCGGTTTTCCCGGTAATCCGTATTTGAT (site AGATTAGCTAT)”, the “recombinant UMI read abundance (log10)” value was 2.09. In the case of “AGCAACGCATGGACCGGTTTTCCCGGTAATCCGTATTTGTG (site AGCAACGCTCA)”, the “recombinant UMI read abundance (log10)” value is reported as 1.36. With “AGCAATACATGGACCGGTTTTCCCGGTAATCCGTATTTGCA (site AGCAATACTTG)” the “recombinant UMI read abundance (log10)” value was 1.73.
